Test results taken from article PMC3252304, “Hydroxybenzothiazoles as New Nonsteroidal Inhibitors of 17β-Hydroxysteroid Dehydrogenase Type 1 (17β-HSD1)” (PLoS ONE, 2012).

Key:
[1] = biological target: T1, human 17β-HSD1 (Homo sapiens, UniProt P14061); assay: 17β-HSD1 cell free assay (placental cytosolic enzyme, [3H]E1 to E2, HPLC radiodetection); type: biochemical; conditions: for inhibition at 1 µM / 17β-HSD1 % inhib. (1µM): inhibitor 1 µM, less than 10% = inactive, ni = no inhibition; for inhibition at 1 µM / IC50 / 17β-HSD1 % inhib. (1µM): human placenta cytosolic fraction, [3H]E1 + E1 500 nM, NADH 500 µM; for inhibition at 1 µM: read-out: 17β-HSD1 % inhib. (1µM); for IC50: mean of three determinations
T1 construct: In the cell free assay, the placental cytosolic enzyme was used; from tissue; host or cells: human placenta, cytosolic fraction, ammonium sulfate precipitate
T1 sequence (P14061 1-328): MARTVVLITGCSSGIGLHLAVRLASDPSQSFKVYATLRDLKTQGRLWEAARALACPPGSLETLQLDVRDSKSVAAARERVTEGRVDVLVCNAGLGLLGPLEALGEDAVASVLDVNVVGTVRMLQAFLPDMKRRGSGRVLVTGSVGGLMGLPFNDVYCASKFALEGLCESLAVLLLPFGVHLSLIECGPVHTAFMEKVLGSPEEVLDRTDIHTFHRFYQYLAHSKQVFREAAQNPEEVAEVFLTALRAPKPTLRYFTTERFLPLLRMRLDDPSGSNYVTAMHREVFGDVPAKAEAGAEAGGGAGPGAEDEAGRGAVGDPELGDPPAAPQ
Method: In the cell free assay, the placental cytosolic enzyme was used. Tritiated E1 (final concentration: 500 nM) was incubated with 17β-HSD1, NADH (500 µM), and inhibitor as previously described [59]. After high performance liquid chromatography (HPLC) separation of substrate and product, the amount of labeled E2 formed was quantified.
Inhibitory activities were evaluated by an established method with minor modifications. Briefly, the enzyme preparation was incubated with NADH [500 µM] in the presence of potential inhibitors at 37 °C in a phosphate buffer (50 mM) supplemented with 20 % of glycerol and EDTA (1mM). Inhibitor stock solutions were prepared in DMSO. The final concentration of DMSO was adjusted to 1 % in all samples. The enzymatic reaction was started by addition of a mixture of unlabelled- and [2, 4, 6, 7-^3H]-E1 (final concentration: 500 nM, 0.15 µCi). After 10 min, the incubation was stopped with HgCl2 and the mixture was extracted with diethylether. After evaporation, the steroids were dissolved in acetonitrile. E1 and E2 were separated using acetonitrile/water (45:55) as mobile phase in a C18 reverse phase chromatography column (Nucleodur C18 Gravity, 3 µm, Macherey-Nagel, Düren) connected to a HPLC-system (Agilent 1100 Series, Agilent Technologies, Waldbronn). Detection and quantification of the steroids were performed using a radioflow detector (Berthold Technologies, Bad Wildbad). The conversion rate was calculated after analysis of the resulting chromatograms according to the following equation: % conversion = % E2/(% E2 + % E1) × 100. Each value was calculated from at least three independent experiments.

[2] = biological target: T2, human 17β-HSD2 (Homo sapiens, UniProt P37059); assay: 17β-HSD2 cell free assay (placental microsomal enzyme, [3H]E2 to E1, HPLC radiodetection); type: biochemical; conditions: for IC50: human placenta microsomal fraction, [3H]E2 + E2 500 nM, NAD+ 1500 µM, mean of three determinations; for SF, selectivity factor = IC50(17β-HSD2)/IC50(17β-HSD1): ratio of cell free IC50 values
T2 construct: 17β-HSD2 was obtained from the microsomal fraction; from tissue; host or cells: human placenta, microsomal fraction
T2 sequence (P37059 1-387): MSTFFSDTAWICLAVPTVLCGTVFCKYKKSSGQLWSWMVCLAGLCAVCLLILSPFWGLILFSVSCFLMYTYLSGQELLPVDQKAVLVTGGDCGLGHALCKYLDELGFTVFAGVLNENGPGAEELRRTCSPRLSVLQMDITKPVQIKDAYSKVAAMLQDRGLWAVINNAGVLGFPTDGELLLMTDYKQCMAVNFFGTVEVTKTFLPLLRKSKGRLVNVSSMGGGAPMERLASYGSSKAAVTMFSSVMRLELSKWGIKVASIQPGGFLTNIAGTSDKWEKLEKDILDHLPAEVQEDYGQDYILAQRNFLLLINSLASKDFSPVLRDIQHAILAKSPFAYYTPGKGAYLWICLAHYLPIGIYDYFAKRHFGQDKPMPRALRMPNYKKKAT
Method: Placental microsomal 17β-HSD2 was incubated with tritiated E2 (final concentration: 500 nM) in the presence of NAD^+ (1500 µM) and inhibitor. Separation and quantification of labeled substrate (E2) and product (E1) was performed by HPLC using radiodetection.
17β-HSD1 and 17β-HSD2 were obtained from human placenta according to previously described procedures. Fresh human placenta was homogenized and cytosolic fraction and microsomes were separated by centrifugation. For the partial purification of 17β-HSD1, the cytosolic fraction was precipitated with ammonium sulfate. 17β-HSD2 was obtained from the microsomal fraction.
Inhibition of 17β-HSD2. The 17β-HSD2 inhibition assay was performed similarly to the 17β-HSD1 procedure. The microsomal fraction was incubated with NAD^+ [1500 µM], test compound and a mixture of unlabelled- and [2, 4, 6, 7-^3H]-E2 (final concentration: 500 nM, 0.11 µCi) for 20 min at 37 °C. Further treatment of the samples and HPLC separation were carried out as mentioned above.
The conversion rate was calculated after analysis of the resulting chromatograms according to the following equation: % conversion = % E1/(% E1 + % E2) × 100.

[3] = test system: ERs; set-up: method as in PMID 15743715, PMID 16728493; conditions: RBA(E2) = 100%; cited from earlier work
[4] = test system: 17β-HSD1; set-up: method as in PMID 12223444; conditions: recombinant protein, NADPH as cosubstrate; value as described; read-out: 17β-HSD1 IC50 (external reference); cited from earlier work

Compound: Cc1nc(C(=O)c2cccc(O)c2)sc1CCO [Compound 5, [5-(2-hydroxyethyl)-4-methyl-1,3-thiazol-2-yl](3-hydroxyphenyl)methanone]
- inhibition at 1 µM [1]: 34%

Compound: O=C(c1cccc(O)c1)c1nc2ccc(O)cc2s1 [Compound 6, (6-hydroxy-1,3-benzothiazol-2-yl)(3-hydroxyphenyl)methanone]
- IC50 [2]: 1040 nM
- SF, selectivity factor = IC50(17β-HSD2)/IC50(17β-HSD1) [2]: 24
- IC50 [1]: 44 nM
- inhibition at 1 µM [1]: 91%

Compound: COc1cccc(C(=O)c2nc3ccc(OC)cc3s2)c1 [Compound 6i]
- 17β-HSD1 % inhib. (1µM) [1]: ni.

Compound: Oc1cccc(C(O)c2nc3ccc(O)cc3s2)c1 (stereo not shown) [Compound 7]
- inhibition at 1 µM [1]: 28%

Compound: COC(c1cccc(O)c1)c1nc2ccc(O)cc2s1 (stereo not shown) [Compound 8]
- inhibition at 1 µM [1]: 13%

Compound: CSC(c1ccc(O)cc1)c1nc2ccc(O)cc2s1 (stereo not shown) [Compound 9]
- 17β-HSD1 % inhib. (1µM) [1]: ni
- inhibition at 1 µM [1]: 7%

Compound: COc1ccc2nc(Cc3ccc(O)cc3)sc2c1 [Compound 10]
- 17β-HSD1 % inhib. (1µM) [1]: ni

Compound: Oc1ccc(Cc2nc3ccc(O)cc3s2)cc1 [Compound 11]
- inhibition at 1 µM [1]: 24%

Compound: O=C(c1cccc(O)c1)c1nc2ccccc2s1 [Compound 12, 1,3-benzothiazol-2-yl(3-hydroxyphenyl)methanone]
- IC50 [2]: 1360 nM
- SF, selectivity factor = IC50(17β-HSD2)/IC50(17β-HSD1) [2]: 4
- fold lower 17β-HSD1 inhibitory activity than 6 ([1]; compared with compound 6): 8 fold
- IC50 [1]: 365 nM
- inhibition at 1 µM [1]: 75%

Compound: COc1ccc(C(=O)c2nc3ccc(O)cc3s2)cc1 [Compound 13, (6-hydroxy-1,3-benzothiazol-2-yl)(4-methoxyphenyl)methanone]
- inhibition at 1 µM [1]: 27%

Compound: O=C(c1ccc(O)cc1)c1nc2ccc(O)cc2s1 [Compound 14, (6-hydroxy-1,3-benzothiazol-2-yl)(4-hydroxyphenyl)methanone]
- IC50 [2]: 2470 nM
- SF, selectivity factor = IC50(17β-HSD2)/IC50(17β-HSD1) [2]: 10
- IC50 [1]: 243 nM
- inhibition at 1 µM [1]: 85%

Compound: COc1ccc2nc(C(=O)Nc3ccccc3O)sc2c1 [Compound 15]
- 17β-HSD1 % inhib. (1µM) [1]: ni

Compound: O=C(Nc1ccccc1O)c1nc2ccc(O)cc2s1 [Compound 16]
- 17β-HSD1 % inhib. (1µM) [1]: ni

Compound: COc1ccc2nc(C(=O)Nc3cccc(O)c3)sc2c1 [Compound 17]
- inhibition at 1 µM [1]: 31%

Compound: O=C(Nc1cccc(O)c1)c1nc2ccc(O)cc2s1 [Compound 18]
- IC50 [2]: 3810 nM
- SF, selectivity factor = IC50(17β-HSD2)/IC50(17β-HSD1) [2]: 3
- IC50 [1]: 1310 nM
- inhibition at 1 µM [1]: 40%

Compound: COc1ccc(C(=O)Nc2nc3ccc(O)cc3s2)cc1 [Compound 19]
- 17β-HSD1 % inhib. (1µM) [1]: ni.

Compound: O=C(Nc1nc2ccc(O)cc2s1)c1ccc(O)cc1 [Compound 20]
- inhibition at 1 µM [1]: 39%

Compound: O=C(Nc1nc2ccc(O)cc2s1)c1cccc(O)c1 [Compound 21]
- IC50 [2]: 9260 nM
- inhibition at 1 µM [1]: 83%

Compound: O=S(=O)(Nc1nc2ccc(O)cc2s1)c1cccc(O)c1 [Compound 22]
- 17β-HSD1 % inhib. (1µM) [1]: inactive and ni

Compound: O=C(Nc1cccc(O)c1)Nc1nc2ccc(O)cc2s1 [Compound 23]
- 17β-HSD1 % inhib. (1µM) [1]: inactive and no inhibition and ni.

Compound: Oc1cccc(NC(=S)Nc2nc3ccc(O)cc3s2)c1 [Compound 24]
- 17β-HSD1 % inhib. (1µM) [1]: moderate inhibitory activity
- inhibition at 1 µM [1]: 62%

Compound: O=C(Cc1cccc(O)c1)Nc1nc2ccc(O)cc2s1 [Compound 25]
- 17β-HSD1 % inhib. (1µM) [1]: inactive and ni

Compound: C[C@]12CC[C@@H]3c4ccc(O)cc4CC[C@H]3[C@@H]1CCC2=O [Compound E1, estrone]
- RBA for the ERs [3]: about 10%

Compound: C[C@]12CC[C@@H]3c4ccc(O)cc4CC[C@H]3[C@@H]1C[C@H](CCCCCCCCC(=O)OCC1OC(n3cnc4c(N)ncnc43)C(O)C1O)[C@@H]2O (stereo partly shown) [EM-1745]
- IC50 [4]: 52 nM
